Literature values, collected in patent US12257342B2, “Phenylephrine hydrochloride ready-to-use solution” (Hikma Pharmaceuticals USA Inc., priority 2015, dated 2025).

Tested on: α−1 adrenergic receptor
Details: following an intravenous bolus administration

CNC[C@H](O)c1cccc(O)c1.Cl [Phenylephrine hydrochloride, (−)-m-Hydroxy-α-[(methylamino)methyl]benzyl alcohol hydrochloride]
onset of blood pressure increase: rapid | persistence of the blood pressure effect: up to 20 minutes
